The results in this text go back to ChEMBL document CHEMBL2331554, “Exploring nature profits: development of novel and potent lipophilic antioxidants based on galloyl-cinnamic hybrids” (Eur J Med Chem, 2013).

Experiment [1] in a line: Antioxidant activity assessed as inhibition of ABTS radical formation for 15 mins by spectrophotometric analysis. The class given is functional.
Experiment [2] concerns Radical scavenging activity. Briefly: Antioxidant activity assessed as inhibition of DPPH radical formation measured every min for 45 mins by spectrophotometric analysis. It is filed as functional. Background: DPPH is a stable violet radical that fades when it is reduced.

Take `O=C(O)/C=C/c1cc(O)c(O)c(O)c1`: the IC50 in experiment [1] worked out at 7.2 µM; in experiment [2] it was 11.8 µM. Further, the inhibition result in experiment [1] and in experiment [2] was “Dose-dependent effect” each time.
On to `CCOC(=O)C(=Cc1ccc(O)c(O)c1)C(=O)OCC`, for which, in experiment [1], the IC50 is 21.1 µM and the inhibition entry was “Dose-dependent effect”. Moreover, in experiment [2], the IC50 is 21.9 µM and the inhibition entry was “Dose-dependent effect”.
Take `CCOC(=O)/C=C/c1cc(O)c(O)c(O)c1`: in experiment [1], the IC50 was found to be 9 µM and the inhibition entry is “Dose-dependent effect”. Moreover, in experiment [2], the IC50 is 15.1 µM and the inhibition entry is “Dose-dependent effect”.
For the compound `CCOC(=O)C(=Cc1cc(O)c(O)c(O)c1)C(=O)OCC`, in experiment [1], the IC50 stood at 7.7 µM and the inhibition entry is “Dose-dependent effect”. Besides, in experiment [2], the IC50 is 12.8 µM and the inhibition entry is “Dose-dependent effect”.
As for `O=C(O)/C=C/c1ccc(O)c(O)c1` [CAFFEIC ACID], in experiment [1], the IC50 is 17.9 µM and the inhibition entry was “Dose-dependent effect”. Further, in experiment [2], the IC50 came out at 18.1 µM and the inhibition result was “Dose-dependent effect”.
Turning to `CCOC(=O)/C=C/c1ccc(O)c(O)c1` [ETHYL CAFFEATE], in experiment [1], the IC50 was 22.6 µM and the inhibition result was “Dose-dependent effect”. In addition, in experiment [2], the IC50 amounted to 26.6 µM and the inhibition result was “Dose-dependent effect”.
As to `O=C(O)c1cc(O)c(O)c(O)c1` [GALLIC ACID], in experiment [1], the IC50 was determined as 7.8 µM and the inhibition entry is “Dose-dependent effect”. Further, in experiment [2], the IC50 came out at 9.9 µM and the inhibition entry is “Dose-dependent effect”.
As to `Cc1c(C)c2c(c(C)c1O)CCC(C)(C(=O)O)O2` (stereo unspecified) [TROLOX], in experiment [1], the IC50 was determined as 26.3 µM and the inhibition entry was “Dose-dependent effect”. Moreover, in experiment [2], the concentration for half-maximal inhibition (IC50) stood at 30.9 µM and the inhibition result was “Dose-dependent effect”.
Regarding VITAMIN E [listing 1 of 2 here], the IC50 came to 26.8 µM in experiment [1] and 31.1 µM in experiment [2].
Take VITAMIN E [listing 2 of 2 here]: the inhibition result in experiment [1] and in experiment [2] was “Dose-dependent effect” each time.

One may read the IC50 as the concentration that gives 50% inhibition.
